Reference: patent US9487502B2, “Chemical compounds” (Syngenta Limited, priority 2013, dated 2016)

Legend:
Type in all cases: in vivo
Amaranthus retroflexus [1] = experiment: Post-emergence herbicidal activity, AMARE; set-up: key: 5=total damage to plant; 0=no damage to plant; conditions: 1000 g/Ha, sprayed post-emergence (8 days cultivation), evaluated after 13 days, scale 0-5
Method: (§1) Seeds of a variety of test species were sown in standard soil in pots. After 8 days cultivation (post-emergence) under controlled conditions in a glasshouse (at 24/16° C., day/night; 14 hours light; 65% humidity), the plants were sprayed with an aqueous spray solution derived from the formulation of the technical active ingredient in acetone/water (50:50) solution containing 0.5% Tween 20 (polyoxyethelyene sorbitan monolaurate, CAS RN 9005-64-5). The test plants were then grown in a glasshouse under controlled conditions (at 24/16° C., day/night; 14 hours light; 65% humidity) and watered twice daily. After 13 days, the test was evaluated (5=total damage to plant; 0=no damage to plant).

Echinochloa crus-galli [2] = experiment: Pre-emergence herbicidal activity, ECHCG; set-up: key: 5=total damage to plant; 0=no damage to plant; conditions: 1000 g/Ha, sprayed pre-emergence, evaluated after 13 days, scale 0-5
Method: as §1, with “After” for “After 8 days”, “for one day (pre-emergence)” for “(post-emergence)”

Abutilon theophrasti [3] = experiment: Pre-emergence herbicidal activity, ABUTH; set-up: key: 5=total damage to plant; 0=no damage to plant; conditions: 1000 g/Ha, sprayed pre-emergence, evaluated after 13 days, scale 0-5
Method: as §1, with “After” for “After 8 days”, “for one day (pre-emergence)” for “(post-emergence)”

Echinochloa crus-galli [4] = experiment: Post-emergence herbicidal activity, ECHCG; set-up: key: 5=total damage to plant; 0=no damage to plant; conditions: 1000 g/Ha, sprayed post-emergence (8 days cultivation), evaluated after 13 days, scale 0-5
Method: as §1

Alopecurus myosuroides [5] = experiment: Post-emergence herbicidal activity, ALOMY; set-up: key: 5=total damage to plant; 0=no damage to plant; conditions: 1000 g/Ha, sprayed post-emergence (8 days cultivation), evaluated after 13 days, scale 0-5
Method: as §1

Zea mays [6] = experiment: Post-emergence herbicidal activity, ZEAMX; set-up: key: 5=total damage to plant; 0=no damage to plant; conditions: 1000 g/Ha, sprayed post-emergence (8 days cultivation), evaluated after 13 days, scale 0-5
Method: as §1

Amaranthus retroflexus [7] = experiment: Pre-emergence herbicidal activity, AMARE; set-up: key: 5=total damage to plant; 0=no damage to plant; conditions: 1000 g/Ha, sprayed pre-emergence, evaluated after 13 days, scale 0-5
Method: as §1, with “After” for “After 8 days”, “for one day (pre-emergence)” for “(post-emergence)”

Alopecurus myosuroides [8] = experiment: Pre-emergence herbicidal activity, ALOMY; set-up: key: 5=total damage to plant; 0=no damage to plant; conditions: 1000 g/Ha, sprayed pre-emergence, evaluated after 13 days, scale 0-5
Method: as §1, with “After” for “After 8 days”, “for one day (pre-emergence)” for “(post-emergence)”

Abutilon theophrasti [9] = experiment: Post-emergence herbicidal activity, ABUTH; set-up: key: 5=total damage to plant; 0=no damage to plant; conditions: 1000 g/Ha, sprayed post-emergence (8 days cultivation), evaluated after 13 days, scale 0-5
Method: as §1

Setaria faberi [10] = experiment: Post-emergence herbicidal activity, SETFA; set-up: key: 5=total damage to plant; 0=no damage to plant; conditions: 1000 g/Ha, sprayed post-emergence (8 days cultivation), evaluated after 13 days, scale 0-5
Method: as §1

Setaria faberi [11] = experiment: Pre-emergence herbicidal activity, SETFA; set-up: key: 5=total damage to plant; 0=no damage to plant; conditions: 1000 g/Ha, sprayed pre-emergence, evaluated after 13 days, scale 0-5
Method: as §1, with “After” for “After 8 days”, “for one day (pre-emergence)” for “(post-emergence)”

Zea mays [12] = experiment: Pre-emergence herbicidal activity, ZEAMX; conditions: 1000 g/Ha, sprayed pre-emergence, evaluated after 13 days, scale 0-5
Method: as §1, with “After” for “After 8 days”, “for one day (pre-emergence)” for “(post-emergence)”

Compound	AMARE damage score, application post-emergence (Amaranthus retroflexus [1])	ECHCG damage score, application pre-emergence (Echinochloa crus-galli [2])	ABUTH damage score, application pre-emergence (Abutilon theophrasti [3])	ECHCG damage score, application post-emergence (Echinochloa crus-galli [4])	ALOMY damage score, application post-emergence (Alopecurus myosuroides [5])	ZEAMX damage score, application post-emergence (Zea mays [6])	AMARE damage score, application pre-emergence (Amaranthus retroflexus [7])	ALOMY damage score, application pre-emergence (Alopecurus myosuroides [8])	ABUTH damage score, application post-emergence (Abutilon theophrasti [9])	SETFA damage score, application post-emergence (Setaria faberi [10])	SETFA damage score, application pre-emergence (Setaria faberi [11])	ZEAMX damage score, application pre-emergence (Zea mays [12])
COC1C(O)N(c2cc(C(C)(C)C)ncn2)C(=O)N1C (stereo not drawn) [Example A11]	5	3	4	4	4	1	5	3	5	5	4	1
CC1C(O)N(c2cc(C(C)(C)F)ncn2)C(=O)N1C (stereo not drawn) [Example A20]	5	4	5	5	4	4	5	3	5	5	5	4
CN1CC(O)N(c2cc(C(C)(C)F)ncn2)C1=O (stereo not drawn) [Example A22]	5	5	5	5	5	5	5	4	5	5	5	4
CCC1C(O)N(c2cc(C(C)(C)C)ncn2)C(=O)N1C (stereo not drawn) [Example A16]	5	4	5	5	3	4	5	2	5	5	5	2
CN1CC(O)N(c2cc(C(C)(C)C)ncn2)C1=O (stereo not drawn) [Example A1, 3-(6-tert-butylpyrimidin-4-yl)-4-hydroxy-1-methyl-imidazolidin-2-one]	5	5	5	5	5	5	5	4	5	5	5	4
CON1CC(O)N(c2cc(C(C)(C)C)ncn2)C1=O (stereo not drawn) [Example A23]	4	4	5	4	1	4	5	1	5	5	2	1
CCN1C(=O)N(c2cc(C(C)(C)C)ncn2)C(O)C1OC (stereo not drawn) [Example A26]	0	0	2	0	1	1	1	0	1	2	0	1
C=CCC1C(O)N(c2cc(C(C)(C)C)ncn2)C(=O)N1C (single isomer, unassigned) [Example A33]	5	5	5	5	5	3	5	4	5	5	4	3
CCCC1C(O)N(c2cc(C(C)(C)C)ncn2)C(=O)N1C (stereo not drawn) [Example A17]	5	5	4	5	3	4	5	4	5	5	5	3
CCOC1C(O)N(c2cc(C(C)(C)C)ncn2)C(=O)N1C (stereo not drawn) [Example A5, 1-(6-tert-butylpyrimidin-4-yl)-4-ethoxy-5-hydroxy-3-methyl-imidazolidin-2-one]	5	5	5	5	5	4	5	4	5	5	5	2
